Patent publication US9649332B2, “Poly (β-hydroxy short-medium chain fatty acid)” (EARTHUS, INC., priority 2003, dated 2017)

System: Cell line HT-29 derived from colon tumor
Experiment: Growth inhibition against colon tumor cell line (MTT method)
Type: cell-based
Conditions: 72 hours, control 0.337 ± 0.055
Protocol: Cell line HT-29 derived from colon tumor was inoculated into McCoy's SA medium supplemented with 10% fetal calf serum comprising penicillin 50 U/ml, streptomycin 50 μg/ml and HEPES 10 mM on 96-well cell culture plate (7,500 cells/well). The cells were pre-incubated in an atmosphere of 95% air and 5% carbon dioxide at 37° C. for 24 hours. […] The plate was incubated further 72 hours. The cell number in the each well was determined by the MTT method based on the difference of the optical density.

SMILES | cell number by MTT method (optical density) (0.1 mM) | cell number by MTT method (optical density) (0.5 mM) | cell number by MTT method (optical density) (1 mM) | cell number by MTT method (optical density) (2 mM)
CCCC(=O)O [butyric acid, reference compound] | 0.234 ± 0.012 | 0.243 ± 0.009 | 0.250 ± 0.010 | 0.200 ± 0.009
C[C@@H](O)CC(=O)O [R-β-hydroxy-butyric acid, R(−)-β-hydroxy-butyric acid] | 0.271 ± 0.028 | 0.264 ± 0.019 | 0.272 ± 0.015 | 0.284 ± 0.023
C[C@H](CC(=O)O)OC(=O)C[C@@H](C)O [R-dimer, dimer of R(−)-β-hydroxybutyric acid] | 0.288 ± 0.019 | 0.251 ± 0.029 | 0.248 ± 0.029 | 0.237 ± 0.019
C[C@H](O)CC(=O)O [S-β-hydroxy-butyric acid, S(+)-β-hydroxybutyric acid] | 0.257 ± 0.035 | 0.255 ± 0.013 | 0.281 ± 0.017 | 0.293 ± 0.022
